Laboratory results reported in paper PMC12320693, “Non-edible onion skin waste as a source of bioactive agents for functional foods development: Chemical composition and multifunctional bioactivity” (Food Chemistry: X, 2025).
Converted amounts (≈) assume the structure as drawn. Read-outs that look alike come from different tables or passages of the source.

Legend:
[1] = design: method as in Li et al., 2011; conditions: ref Li et al., 2011; cited from earlier work
[2] = tested on: Aspergillus fumigatus (ATCC 204305); test: Antifungal activity, Aspergillus fumigatus; format: cell-based
Description: (§1) Three yeast strains (Candida albicans (ATCC 10231), Candida krusei (ATCC 6258), and Cryptococcus neoformans (CECT1078)) and filamentous fungi (one Aspergillus fumigatus (ATCC 204305) and three dermatophytes (Trichophyton rubrum (FF5), Nannizzia gypsea (formerly Microsporum gypseum-FF3) and Epidermophyton floccosum (FF9)) were used in this work. Sub-cultures were prepared in Sabouraud Dextrose Agar medium (SDA) from 1–2 days (yeasts and Aspergillus) to 5–7 days (dermatophytes) to ensure optimal growth conditions and purity.
(§2) Fungal organisms were cultured in SDA and then suspended in RPMI-1640 broth. Serial dilutions of the onion skin extract solutions, prepared from a stock solution (8 mg/mL in DMSO), were prepared in RPMI-1640 broth, starting at a concentration of 4 mg/mL. Sample dilutions and cell suspensions were distributed into 96 well plates and incubated under aerobic, humid conditions at 26 °C for dermatophytes and 36 °C for the other organisms. Incubation times were 5 to 7 days for dermatophytes, 72 h for C. neoformans, and 48 h for the remaining organisms. […] In cases where MIC was determined, 20 μL from wells without visible growth were cultured on SDA plates, incubating under the same conditions previously described for each organism. The Minimal Fungicidal Concentration (MFC) was then determined as the lowest concentration where complete no growth was observed on the SDA plates. All the experiments were conducted in triplicate.

[3] = tested on: Nannizzia gypsea (formerly Microsporum gypseum-FF3); test: Antifungal activity, Nannizzia gypsea; format: cell-based
Description: as §1, §2

[4] = ref Yuting et al., 1990; cited from earlier work
[5] = molecular target: T1, α-glucosidase (Saccharomyces cerevisiae, UniProt P53341); test: α-Glucosidase activity assay (pure enzyme); format: biochemical
T1 construct: purchased Sigma-Aldrich (St. Louis, MO, USA)
T1 sequence (P53341 whole entry): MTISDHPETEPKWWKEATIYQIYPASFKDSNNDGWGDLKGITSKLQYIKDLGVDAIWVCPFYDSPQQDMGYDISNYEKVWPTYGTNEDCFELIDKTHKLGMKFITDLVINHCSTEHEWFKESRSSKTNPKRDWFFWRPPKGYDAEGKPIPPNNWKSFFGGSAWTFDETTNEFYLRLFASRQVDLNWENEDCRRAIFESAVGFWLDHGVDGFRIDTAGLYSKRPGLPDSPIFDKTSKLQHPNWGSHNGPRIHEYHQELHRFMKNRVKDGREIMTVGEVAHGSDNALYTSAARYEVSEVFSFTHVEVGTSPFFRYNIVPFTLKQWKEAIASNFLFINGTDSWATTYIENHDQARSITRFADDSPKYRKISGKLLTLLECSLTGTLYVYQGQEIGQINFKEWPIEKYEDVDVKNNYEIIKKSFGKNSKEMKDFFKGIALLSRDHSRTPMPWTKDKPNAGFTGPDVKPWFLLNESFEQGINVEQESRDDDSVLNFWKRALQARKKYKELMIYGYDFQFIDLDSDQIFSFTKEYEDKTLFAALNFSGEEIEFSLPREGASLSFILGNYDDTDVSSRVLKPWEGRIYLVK
Description: Enzymes for in vitro enzymatic assays were aldose-reductase (Homo sapiens, human) from Prozomix (UK), α-amylase (porcine pancreas), α-glucosidase (Saccharomyces cerevisiae), acetylcholinesterase from Electrophorus electricus, lipoxygenase from Glycine max (soybean), tyrosinase from mushroom, xanthine oxidase from bovine milk, all provided by Sigma-Aldrich (St. Louis, MO, USA).
α-Glucosidase activity was evaluated incubating 180 μL of a mixture of the extract solutions, prepared in 10 mM potassium phosphate buffer (pH 7.0), and 20 μL of the enzyme solution at 37 °C for 2 min. Absorbance at 405 nm was measured after adding 100 μL of 2.5 mM 4-nitrophenyl-α-D-glucopyranoside, and after 10 min incubation.

[6] = tested on: Trichophyton rubrum (FF5); test: Antifungal activity, Trichophyton rubrum; format: cell-based
Description: as §1, §2

[7] = tested on: Cryptococcus neoformans (CECT1078); test: Antifungal activity, Cryptococcus neoformans; format: cell-based
Description: as §1, §2

[8] = tested on: Epidermophyton floccosum (FF9); test: Antifungal activity, Epidermophyton floccosum; format: cell-based
Description: as §1, §2

[9] = design: method as in Li et al., 2011; conditions: ref Li et al., 2011; cited from earlier work; remark: listed apart in the source
[10] = molecular target: T2, 5-LOX (lipoxygenase) (Glycine max, UniProt P08170); test: Lipoxygenase (5-LOX) activity assay; format: biochemical, Glycine max (soybean)
T2 construct: purchased Sigma-Aldrich (St. Louis, MO, USA)
T2 sequence (P08170 whole entry): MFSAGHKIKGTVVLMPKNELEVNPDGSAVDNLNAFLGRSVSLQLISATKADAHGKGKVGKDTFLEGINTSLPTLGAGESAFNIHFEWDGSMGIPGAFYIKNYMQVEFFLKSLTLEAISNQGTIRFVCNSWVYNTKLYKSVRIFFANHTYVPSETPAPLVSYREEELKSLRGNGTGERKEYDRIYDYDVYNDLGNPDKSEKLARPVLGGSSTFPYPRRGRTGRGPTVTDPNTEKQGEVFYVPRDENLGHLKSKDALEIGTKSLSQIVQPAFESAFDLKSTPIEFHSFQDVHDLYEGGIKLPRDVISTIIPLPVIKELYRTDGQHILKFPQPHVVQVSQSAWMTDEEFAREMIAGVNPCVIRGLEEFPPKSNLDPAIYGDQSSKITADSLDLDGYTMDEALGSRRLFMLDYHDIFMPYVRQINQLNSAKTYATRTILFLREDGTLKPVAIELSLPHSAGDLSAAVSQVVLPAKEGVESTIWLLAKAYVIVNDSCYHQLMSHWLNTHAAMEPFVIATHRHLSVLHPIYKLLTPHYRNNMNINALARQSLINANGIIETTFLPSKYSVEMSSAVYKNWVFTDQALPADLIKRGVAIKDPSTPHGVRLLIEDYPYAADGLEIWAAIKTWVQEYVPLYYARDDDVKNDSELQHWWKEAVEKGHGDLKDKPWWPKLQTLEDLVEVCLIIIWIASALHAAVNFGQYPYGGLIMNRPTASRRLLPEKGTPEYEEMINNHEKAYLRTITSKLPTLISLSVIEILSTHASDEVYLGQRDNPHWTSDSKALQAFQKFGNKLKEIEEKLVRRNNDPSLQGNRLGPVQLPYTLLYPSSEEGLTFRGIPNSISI
Description: The ability of the extracts and pure compounds to inhibit 5-LOX activity was assessed by measuring their capacity to prevent linoleic oxidation. In short, 200 μL of the extract solutions, diluted in 100 mM phosphate buffer (pH 9.0), was mixed with 20 μL of the enzyme solution and 20 μL of 4.18 mM linoleic acid prepared in ethanol, and the absorbance at 234 nm was measured. A control was prepared with buffer instead of sample ([Trigueros, Oliveira, et al., 2024]).

[11] = Nitric oxide radical scavenging activity; format: biochemical
Description: The capacity of the onion skin extracts to scavenge the nitric oxide (^●NO) radical was assessed using the method described by [Ferreres et al. (2021)]. This involved mixing 100 μL of the extract solutions, diluted in 0.1 M phosphate buffer (pH 7.4), with the same volume of 20 mM sodium nitroprusside dihydrate. After a 60 min incubation under light, the Griess reagent (100 μL) was added, followed by 10 min incubation in the dark, and absorbance was measured at 560 nm. Quercetin was used as positive control. At least five different concentrations were tested for each onion skin extract, with a minimum of three independent experiments conducted in triplicate. A control was prepared replacing sample with buffer, and a blank with phosphoric acid instead of the Griess reagent.

[12] = design: method as in Li et al., 2011; conditions: ref Li et al., 2011; cited from earlier work; remark: listed apart in the source
[13] = molecular target: T3, acetylcholinesterase (Electrophorus electricus, UniProt O42275); test: Acetylcholinesterase (AChE) inhibition assay; format: biochemical
T3 construct: purchased Sigma-Aldrich (St. Louis, MO, USA)
T3 sequence (O42275 24-633): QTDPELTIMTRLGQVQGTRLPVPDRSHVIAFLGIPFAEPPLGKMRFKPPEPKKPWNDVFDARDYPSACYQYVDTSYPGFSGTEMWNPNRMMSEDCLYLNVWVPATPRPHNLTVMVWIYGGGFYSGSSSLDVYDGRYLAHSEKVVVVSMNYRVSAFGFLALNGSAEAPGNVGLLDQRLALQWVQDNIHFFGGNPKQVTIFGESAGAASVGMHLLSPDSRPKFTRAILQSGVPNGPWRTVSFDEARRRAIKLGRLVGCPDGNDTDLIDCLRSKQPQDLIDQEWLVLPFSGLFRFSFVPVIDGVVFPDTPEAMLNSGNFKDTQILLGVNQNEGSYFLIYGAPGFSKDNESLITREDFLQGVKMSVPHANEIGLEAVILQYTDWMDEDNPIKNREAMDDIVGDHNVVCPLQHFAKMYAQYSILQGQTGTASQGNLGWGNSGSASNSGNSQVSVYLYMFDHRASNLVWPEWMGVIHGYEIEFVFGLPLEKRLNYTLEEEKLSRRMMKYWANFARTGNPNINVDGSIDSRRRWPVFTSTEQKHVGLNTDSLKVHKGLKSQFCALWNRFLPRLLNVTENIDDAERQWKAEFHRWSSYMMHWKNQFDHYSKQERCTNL
Description: Acetylcholinesterase activity was assessed combining 75 μL of the extract solutions, prepared in 50 mM Tris-HCl buffer (pH 8.0), plus 0.1 % (w/v) albumin, with 25 μL of 15 mM ATCI and 125 μL of 3 mM DTNB. The formation of 5-thio-2-nitrobenzoate was monitored at 405 nm ([Trigueros, Oliveira, et al., 2024]).

[14] = Superoxide anion radical scavenging activity; format: biochemical
Description: The ability of the onion skin extracts to scavenge the superoxide anion (O2^●-) radical was determined according to [Ferreres et al. (2021)]. Equal volumes (50 μL) of the extract solutions, diluted in 19 mM phosphate buffer (pH 7.4), and 0.166 mM NADH, and three volumes of 0.043 mM nitrotetrazolium blue chloride were combined. The reaction was initiated by adding 50 μL of 2.7 μM phenazine methosulfate, and absorbance was recorded at 560 nm. A control was prepared substituting sample with buffer.

[15] = tested on: Candida krusei (ATCC 6258); test: Antifungal activity, Candida krusei; format: cell-based; conditions: Pichia kudriavzevii, ATCC6258
Description: as §1, §2

[16] = tested on: Candida albicans (ATCC 10231); test: Antifungal activity, Candida albicans; format: cell-based
Description: as §1, §2

[17] = molecular target: T4, xanthine oxidase (Bos taurus, UniProt P80457); test: Xanthine oxidase inhibition assay; format: biochemical
T4 construct: purchased Sigma-Aldrich (St. Louis, MO, USA); host or cells: bovine milk
T4 sequence (P80457 whole entry): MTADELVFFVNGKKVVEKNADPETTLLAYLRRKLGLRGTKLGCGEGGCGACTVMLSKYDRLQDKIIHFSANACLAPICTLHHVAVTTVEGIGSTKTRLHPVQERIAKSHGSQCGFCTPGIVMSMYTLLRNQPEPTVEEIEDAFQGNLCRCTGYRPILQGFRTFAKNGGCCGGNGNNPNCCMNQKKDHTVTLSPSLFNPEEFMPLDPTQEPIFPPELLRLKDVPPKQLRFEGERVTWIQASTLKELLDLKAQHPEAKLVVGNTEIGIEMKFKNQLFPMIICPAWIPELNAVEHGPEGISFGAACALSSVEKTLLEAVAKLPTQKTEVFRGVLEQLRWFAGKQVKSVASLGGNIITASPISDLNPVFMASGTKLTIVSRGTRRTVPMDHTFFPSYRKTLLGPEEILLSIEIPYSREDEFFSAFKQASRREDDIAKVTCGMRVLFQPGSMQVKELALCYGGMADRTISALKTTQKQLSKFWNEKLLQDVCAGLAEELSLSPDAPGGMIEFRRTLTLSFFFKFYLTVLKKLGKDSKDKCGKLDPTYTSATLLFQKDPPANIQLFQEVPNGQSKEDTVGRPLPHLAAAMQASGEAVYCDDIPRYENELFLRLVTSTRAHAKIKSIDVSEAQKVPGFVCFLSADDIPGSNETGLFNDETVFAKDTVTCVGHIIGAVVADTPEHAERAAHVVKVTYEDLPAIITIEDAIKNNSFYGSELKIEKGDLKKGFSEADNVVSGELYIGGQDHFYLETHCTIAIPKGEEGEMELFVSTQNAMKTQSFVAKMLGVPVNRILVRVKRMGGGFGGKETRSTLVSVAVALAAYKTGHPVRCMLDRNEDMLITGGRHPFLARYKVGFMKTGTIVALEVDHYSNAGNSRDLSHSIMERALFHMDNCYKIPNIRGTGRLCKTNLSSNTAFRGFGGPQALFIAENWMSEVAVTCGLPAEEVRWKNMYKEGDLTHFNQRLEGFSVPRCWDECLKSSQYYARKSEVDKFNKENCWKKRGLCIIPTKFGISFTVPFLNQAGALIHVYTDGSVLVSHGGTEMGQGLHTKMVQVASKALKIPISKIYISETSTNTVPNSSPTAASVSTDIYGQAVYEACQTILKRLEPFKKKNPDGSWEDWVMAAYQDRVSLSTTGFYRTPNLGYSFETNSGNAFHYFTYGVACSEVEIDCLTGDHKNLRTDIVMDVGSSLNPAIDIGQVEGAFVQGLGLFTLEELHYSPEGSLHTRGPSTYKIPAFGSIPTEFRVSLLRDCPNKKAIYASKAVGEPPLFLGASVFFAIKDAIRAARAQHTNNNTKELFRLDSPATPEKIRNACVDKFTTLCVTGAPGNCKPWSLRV
Description: Xanthine oxidase activity was determined using a previously established method by monitoring the conversion of xanthine to uric acid ([Trigueros, Oliveira, et al., 2024]). 200 μL of the extract solutions, diluted in 5 mM phosphate buffer (pH 7.4), was mixed with 10 μL of xanthine oxidase solution, incubated for 5 min at 37 °C, followed by the addition of 40 μL of 1.25 mM xanthine solution, and absorbance was measured at 295 nm. A control assay was prepared with buffer.

[18] = tested on: NO production in LPS-induced BV-2 cells; design: method as in Sun et al., 2015; conditions: ref Sun et al., 2015; cited from earlier work
[19] = 100 % growth inhibition, read-out: MIC

O=C(O)c1ccc(O)c(O)c1 [Protocatechuic acid]
IC50, hydroxyl radicals [1]: 74 µg/mL (≈ 0.48 mM) | MFC ([2]; ATCC204305): > 4000 µg/mL | MIC ([2]; ATCC204305): > 4000 µg/mL | MFC [3]: > 4000 µg/mL | MIC [3]: > 4000 µg/mL | IC50, O2●- scavenging [4]: 310 µg/mL (≈ 2.01 mM) | IC50 [5]: 2.76 mM | MFC [6]: 2000 µg/mL (≈ 13 mM) | MIC [6]: 2000 µg/mL (≈ 13 mM) | MIC ([6]; read-out: MIC, 90 % growth inhibition): 1000 µg/mL (≈ 6.49 mM) | MFC ([7]; CECT1078): 2000 µg/mL (≈ 13 mM) | MIC ([7]; CECT1078, read-out: MIC, ≥ 95 % growth inhibition): 1000 µg/mL (≈ 6.49 mM) | MFC [8]: 2000 µg/mL (≈ 13 mM) | MIC [8]: 500 µg/mL (≈ 3.24 mM) | IC50, ABTS [9]: 0.89 µg/mL (≈ 0.00577 mM) | IC50 [10]: 247 µM | IC25, ●NO scavenging [11]: 237 ± 16 µg/mL (≈ 1.54 mM) | ●NO scavenging activity ([11]; at the maximum tested concentration (1.33 mg/mL)): below 40% | IC50, DPPH [12]: 1.88 µg/mL (≈ 0.0122 mM) | IC25, AChE [13]: 1809 ± 31 µg/mL (≈ 11.7 mM) | IC50, O2●- scavenging [14]: 252 ± 8 µg/mL (≈ 1.64 mM) | MFC [15]: > 4000 µg/mL | MIC [15]: > 4000 µg/mL | MFC ([16]; ATCC10231): > 4000 µg/mL | MIC ([16]; ATCC10231): > 4000 µg/mL | IC50 [17]: 908 µM

O=c1c(O)c(-c2ccc(O)c(O)c2)oc2cc(O)cc(O)c12 [Quercetin]
MIC ([2]; ATCC204305, 100 % growth inhibition, read-out: MIC): > 4000 µg/mL | MFC ([2]; ATCC204305, read-out: MFC): > 4000 µg/mL | MIC [3, 19]: > 4000 µg/mL | MFC ([3]; read-out: MFC): > 4000 µg/mL | MIC [6, 19]: 1000 µg/mL (≈ 3.31 mM) | MFC ([6]; read-out: MFC): 1000 µg/mL (≈ 3.31 mM) | MIC ([7]; CECT1078, 100 % growth inhibition, read-out: MIC): 1000 µg/mL (≈ 3.31 mM) | MFC ([7]; CECT1078, read-out: MFC): 2000 µg/mL (≈ 6.62 mM) | MIC ([7]; CECT1078, read-out: MIC, 90 % growth inhibition, 90 %): 750 µg/mL (≈ 2.48 mM) | MIC [8, 19]: 500 µg/mL (≈ 1.65 mM) | MFC ([8]; read-out: MFC): 1000 µg/mL (≈ 3.31 mM) | IC50, ●NO scavenging [11]: 49 ± 2 µg/mL (≈ 0.162 mM) | concentrations effectively reducing NO production [18]: above 5 μM | IC50, O2●- scavenging [14]: 22.4 ± 1.1 µg/mL (≈ 0.0741 mM) | MIC ([15]; Candida krusei, 100 % growth inhibition, read-out: MIC): ≥ 4000 µg/mL | MFC ([15]; Candida krusei, read-out: MFC): > 4000 µg/mL | MIC ([16]; ATCC10231, 100 % growth inhibition, read-out: MIC): > 4000 µg/mL | MFC ([16]; ATCC10231, read-out: MFC): > 4000 µg/mL
